Measured values reported in patent publication US20220054588A1, “USE OF SAP FOR THE TREATMENT OF EUROTIOMYCETES FUNGI INFECTIONS” (HUMANITAS MIRASOLE S.P.A., priority 2018, published 2022).

What was measured:
A. fumigatus conidia = test: FACS binding of biotin-conjugated murine SAP to A. fumigatus conidia, with competition; design: species or system Aspergillus fumigatus; settings: Sap 10 μg/ml
Method: FIG. 1 depicts the interaction of SAP with A. fumigatus conidia in mice. a) induction of SAP circulating levels after i.t. injection of 5×10^7 A. fumigatus (AF) conidia; LPS, 0.8 mg/Kg. Mean±SD. c) FACS analysis of binding of biotin-conjugated (b-) murine SAP (Sap; 10 μg/ml) to viable dormant or germinating conidia of AF (1×10^8). Human SAP (50 μg/ml) and CRP (50 μg/ml) were also used. Mean±SD of one quadruplicate experiment of two performed.
FIG. 10 depicts the susceptibility to A. fumigatus associated with single or double deficiency for SAP and PTX3. a and b, survival of wt and Apcs^−/−, Ptx3^−/− and Apcs^−/−, Ptx3^−/− mice after i.t. injection of 1×10^8 (a) or 5×10^7 (b) conidia. a, wt, n=9 (a, b); n=9 (a, b); Ptx3^−/−, n=7 (a) or n=10 (b); Ptx3^−/−, n=5 (a) or n=12 (b). a, b, P<0.05, wt vs. Apcs^−/− P<0.01 wt vs. Apcs^−/−, Ptx3^−/−; P=0.06, Apcs^−/−, Ptx3^−/− vs. Ptx3^−/− (Mantel-Cox test). a) Curves of wt and Apcs^−/− refer to the same ones shown in FIG. 2a-c FACS analysis of Sap (range from 0.1 to 10 μg/ml) binding to viable AF conidia (1×10^8) in presence of Ptx3 (50 μg/ml). An anti-Sap monoclonal antibody (non-reactive to Ptx3) was used. Mean±SD of a triplicate. **, P<0.01;***, P<0.005;****, P<0.0001 (unpaired t-test).
(§1) Binding of SAP. Conidia of A. fumigatus and A. flavus (1×10^8 CFU) were cultured 4 and 16 h under static condition in Sabouraud medium to respectively allow conidia swelling and germination. Blastospores and yeast of Candida albicans were prepared as previously described (Santus et al., 2017). Yeast (8×10^6/ml) were incubated at 37° C. for hyphal induction. Formation of hyphae was evaluated under a microscope at different time points until its amount was assessed at 95%. […] After extensive washing, samples were incubated (30 min, r. t.) with Alexa Fluor® 647-conjugated streptavidin and binding was evaluated by FACS as frequency and MFI and visualized by confocal microscopy as described. […]

Candida albicans = test: FACS binding of biotin-conjugated murine SAP to Candida albicans, with competition
Method: FIG. 16 depicts the binding of Sap on Candida. a) FACS analysis of binding of biotin-conjugated (b-) murine SAP (Sap; 10 μg/ml) to bastospore, yeast and hyphae of Candida albicans (1×10^8). Human SAP (50 μg/ml) was also used to compete binding of Sap. […] Survival of wt and Apcs^−/− mice after retroorbital injection of 1×10^6 blastospores of Candida albicans. wt, n=10; Apcs^−/− n=12.
as §1, with “95%. After washing with PBS^2+, pH 7.4, containing 0.01% (vol/vol) Tween-20 ® (Merck-Millipore), Cells (1×10^7 CFU) were incubated (1 h, r. t.) with biotin-labelled murine SAP (R&D Systems) at concentrations ranging from 0.1 to 10 μg/ml in PBS^2+, pH 7.4, containing 2% BSA (Sigma-Aldrich).” for “95%.”

Molecule | competition of murine SAP binding to A. fumigatus conidia (A. fumigatus conidia; competitor 50 μg/ml) | competition of Sap binding to Candida albicans (Candida albicans; competitor 50 μg/ml) | binding to A. fumigatus conidia (A. fumigatus conidia; FACS and confocal microscopy) | binding to blastospores, yeasts and hyphae of Candida albicans (Candida albicans; Sap 10 μg/ml)
human native SAP: Native SAP from human serum purchased by Merck-Millipore; Serum Amyloid P component, SEQ ID NO: 1 | competed | competed |  | 
recombinant murine SAP: recombinant murine SAP from mouse myeloma cell line NSO (R&D Systems) (protein, UniProt P12246 21-224, looked up) Serum amyloid P-component: QTDLKRKVFVFPRESETDHVKLIPHLEKPLQNFTLCFRTYSDLSRSQSLFSYSVKGRDNELLIYKEKVGEYSLYIGQSKVTVRGMEEYLSPVHLCTTWESSSGIVEFWVNGKPWVKKSLQREYTVKAPPSIVLGQEQDNYGGGFQRSQSFVGEFSDLYMWDYVLTPQDILFVYRDSPVNPNILNWQALNYEINGYVVIRPRVWD |  |  | bound viable dormant, swollen and germinated conidia | bound with low affinity
